Experiments:
hTLR8 = biological target: T1, hTLR8 (Homo sapiens, UniProt Q9NR97); test: agonistic activity on hTLR8, HEK-Blue hTLR cells, SEAP reporter (QUANTI-Blue); type: cell-based; conditions: HEK-Blue hTLR cells, SEAP reporter, OD650, cultured 1 day; read-out: TLR 8 EC50
T1 construct: expressed in transfected cells; host or cells: HEK-Blue hTLR cells
T1 sequence (Q9NR97 27-1041): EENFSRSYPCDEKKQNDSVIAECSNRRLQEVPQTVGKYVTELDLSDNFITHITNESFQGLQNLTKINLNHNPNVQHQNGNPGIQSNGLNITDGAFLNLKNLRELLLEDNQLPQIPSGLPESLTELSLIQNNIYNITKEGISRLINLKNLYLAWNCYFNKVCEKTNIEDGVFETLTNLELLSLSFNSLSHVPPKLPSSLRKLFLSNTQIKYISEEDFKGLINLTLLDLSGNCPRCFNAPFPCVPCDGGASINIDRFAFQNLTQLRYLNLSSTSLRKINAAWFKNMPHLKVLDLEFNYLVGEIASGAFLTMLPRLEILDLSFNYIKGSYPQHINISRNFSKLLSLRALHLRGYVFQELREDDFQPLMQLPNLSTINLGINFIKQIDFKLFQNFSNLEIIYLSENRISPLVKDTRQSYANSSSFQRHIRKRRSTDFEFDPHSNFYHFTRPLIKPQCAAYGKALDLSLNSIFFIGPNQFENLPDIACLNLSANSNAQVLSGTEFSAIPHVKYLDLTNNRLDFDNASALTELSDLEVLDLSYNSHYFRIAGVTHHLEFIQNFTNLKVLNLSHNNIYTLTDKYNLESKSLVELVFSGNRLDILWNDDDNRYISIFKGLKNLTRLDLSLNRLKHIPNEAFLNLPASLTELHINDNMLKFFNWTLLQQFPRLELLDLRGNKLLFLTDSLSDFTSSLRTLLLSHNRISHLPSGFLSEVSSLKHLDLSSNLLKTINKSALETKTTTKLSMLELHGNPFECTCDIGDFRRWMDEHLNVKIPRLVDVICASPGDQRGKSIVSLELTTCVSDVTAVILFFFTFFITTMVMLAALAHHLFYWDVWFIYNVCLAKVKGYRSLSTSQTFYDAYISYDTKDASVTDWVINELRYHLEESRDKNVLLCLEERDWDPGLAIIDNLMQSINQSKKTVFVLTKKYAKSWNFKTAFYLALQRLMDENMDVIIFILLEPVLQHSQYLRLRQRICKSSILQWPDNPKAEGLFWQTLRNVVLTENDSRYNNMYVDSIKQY
Method: Experiments on the agonistic activity of TLR7 and TLR8 by the compounds in vitro
(§1) The compound was diluted with 1:3 series with DMSO for 9 concentration points, duplicated wells, and added to 96-well plate with Echo.
(§2) The HEK-Blue™ hTLR cells were suspended in the culture medium and then seeded into a 96-well plate containing the compound at a density of 50,000 cells/well. Cells were cultured at 5% CO2 and 37° C. for 1 day. The final concentration of DMSO in the cell culture medium was 0.5%.
20 uL cell culture supernatant was taken, according to the QUANTI-Blue instructions, the reporter gene SEAP in the supernatant was detected, and the OD650 signal value was read with a microplate reader to calculate the agonist activity of the compound on the hTLR7 and hTLR8.
(§3) The EC50 and CC50 values of the compound were calculated by GraphPad Prism software, and the fitting curve was plotted.

[1] = cytotoxicity, cell viability by CellTiter-Glo; type: cell-based, human; conditions: human, HEK-Blue hTLR cells, cultured 1 day
Method: as §1, §2
According to the CellTiter-Glo instructions, the cell viability was measured, and the Luminescence signal value was read by the microplate reader, which was used to calculate the cytotoxicity of the compound.
as §3

Q: With `CCOCc1nc2c(N)nc3ccccc3c2n1C[C@@H](C)O[P@](=O)(N[C@@H](C)C(=O)OC(C)C)Oc1ccc2ccccc2c1` (single isomer, unassigned) [Example 6B] as the molecule, how does the EC50 (hTLR8) read?
A: Its EC50 is 0.023 µM.

Q: And the CC50 at 1 day [1]?
A: Its CC50 at 1 day is greater than 30 µM.

Q: With `CCOCc1nc2c(N)nc3ccccc3c2n1C[C@@H](C)O[P@@](=O)(N[C@@H](C)C(=O)OC(C)C)Oc1ccccc1C` (single isomer, unassigned) [Example 7A] as the molecule, how does the EC50 (hTLR8) read?
A: The EC50 was 0.213 µM.

Q: And the CC50 at 1 day [1]?
A: Its CC50 at 1 day is greater than 30 µM.

Q: For `CCOCc1nc2c(N)nc3ccccc3c2n1C[C@@H](C)O[P@](=O)(N[C@@H](C)C(=O)OC(C)C)Oc1ccccc1C` (single isomer, unassigned) [Example 7B], which EC50 (hTLR8) is on record?
A: The EC50 was 0.041 µM.

Q: What about the CC50 at 1 day [1] of the same molecule?
A: Its CC50 at 1 day is greater than 30 µM.

Q: For `CCOCc1nc2c(N)nc3ccccc3c2n1C[C@@H](C)O[P@@](=O)(N[C@@H](C)C(=O)OC(C)C)Oc1cccc(C)c1` (single isomer, unassigned) [Example 8A], which EC50 (hTLR8) is on record?
A: The EC50 was 0.036 µM.

Q: What about the CC50 at 1 day [1] of the same molecule?
A: Its CC50 at 1 day is greater than 30 µM.

Q: Which EC50 (hTLR8) does the source give for `CCOCc1nc2c(N)nc3ccccc3c2n1C[C@@H](C)O[P@](=O)(N[C@@H](C)C(=O)OC(C)C)Oc1cccc(C)c1` (single isomer, unassigned) [Example 8B] here?
A: Its EC50 is 0.065 µM.

Q: And the CC50 at 1 day [1]?
A: The CC50 at 1 day was greater than 30 µM.

Q: Which EC50 (hTLR8) does the source give for `CCOCc1nc2c(N)nc3ccccc3c2n1C[C@@H](C)O[P@](=O)(N[C@@H](C)C(=O)OC(C)C)Oc1ccc(C)cc1` (single isomer, unassigned) [Example 9B] here?
A: Its EC50 is 0.071 µM.

Q: And the CC50 at 1 day [1]?
A: Its CC50 at 1 day is greater than 30 µM.

Q: What does the source list for `CCOCc1nc2c(N)nc3ccccc3c2n1C[C@@H](C)O[P@@](=O)(N[C@@H](C)C(=O)OC(C)C)Oc1ccccc1Cl` (single isomer, unassigned) [Example 10A]?
A: EC50 (hTLR8): 0.034 µM; CC50 at 1 day [1]: > 30 µM

Q: With `CCOCc1nc2c(N)nc3ccccc3c2n1C[C@@H](C)O[P@](=O)(N[C@@H](C)C(=O)OC(C)C)Oc1ccccc1Cl` (single isomer, unassigned) [Example 10B] as the molecule, how does the EC50 (hTLR8) read?
A: The EC50 was 0.013 µM.

Q: And the CC50 at 1 day [1]?
A: The CC50 at 1 day was greater than 30 µM.

Q: Which results are given for `CCOCc1nc2c(N)nc3ccccc3c2n1C[C@@H](C)O[P@](=O)(N[C@@H](C)C(=O)OC(C)C)Oc1cccc(Cl)c1` (single isomer, unassigned) [Example 11B]?
A: EC50 (hTLR8): 0.071 µM; CC50 at 1 day [1]: > 30 µM

Q: With `CCOCc1nc2c(N)nc3ccccc3c2n1C[C@@H](C)O[P@](=O)(N[C@@H](C)C(=O)OC(C)C)Oc1ccc(Cl)cc1` (single isomer, unassigned) [Example 12B] as the molecule, how does the EC50 (hTLR8) read?
A: The EC50 was 0.049 µM.

Q: And the CC50 at 1 day [1]?
A: The CC50 at 1 day was greater than 30 µM.

Q: For `CCOCc1nc2c(N)nc3ccccc3c2n1C[C@@H](C)O[P@@](=O)(N[C@H](C)C(=O)OC(C)C)Oc1ccccc1` (single isomer, unassigned) [Example 13A], which EC50 (hTLR8) is on record?
A: The EC50 was 0.764 µM.

Q: What about the CC50 at 1 day [1] of the same molecule?
A: Its CC50 at 1 day is greater than 30 µM.

Q: Which EC50 (hTLR8) does the source give for `CCOCc1nc2c(N)nc3ccccc3c2n1C[C@@H](C)O[P@](=O)(N[C@H](C)C(=O)OC(C)C)Oc1ccccc1` (single isomer, unassigned) [Example 13B] here?
A: The EC50 was 1.85 µM.

Q: And the CC50 at 1 day [1]?
A: Its CC50 at 1 day is greater than 30 µM.

Q: With `CCOCc1nc2c(N)nc3ccccc3c2n1C[C@@H](C)O[P@](=O)(N[C@@H](C)C(=O)OC(C)(C)C)Oc1ccccc1` (single isomer, unassigned) [Example 14B] as the molecule, how does the EC50 (hTLR8) read?
A: Its EC50 is 1.29 µM.

Q: What about the CC50 at 1 day [1] of the same molecule?
A: The CC50 at 1 day was greater than 30 µM.

Q: Which EC50 (hTLR8) does the source give for `CCOCc1nc2c(N)nc3ccccc3c2n1C[C@@H](C)O[P@@](=O)(N[C@@H](C)C(=O)OC)Oc1ccccc1` (single isomer, unassigned) [Example 15A] here?
A: The EC50 was 0.068 µM.

Q: What about the CC50 at 1 day [1] of the same molecule?
A: The CC50 at 1 day was greater than 30 µM.

Q: Which results are given for `CCOCc1nc2c(N)nc3ccccc3c2n1C[C@@H](C)O[P@](=O)(N[C@@H](C)C(=O)OC)Oc1ccccc1` (single isomer, unassigned) [Example 15B]?
A: EC50 (hTLR8): 0.048 µM; CC50 at 1 day [1]: > 30 µM

Q: Which EC50 (hTLR8) does the source give for `CCOCc1nc2c(N)nc3ccccc3c2n1C[C@@H](C)O[P@](=O)(N[C@@H](C)C(=O)OCc1ccccc1)Oc1ccccc1` (single isomer, unassigned) [Example 16B] here?
A: Its EC50 is 0.0115 µM.

Q: What about the CC50 at 1 day [1] of the same molecule?
A: Its CC50 at 1 day is greater than 30 µM.

Q: Which EC50 (hTLR8) does the source give for `CCOCc1nc2c(N)nc3ccccc3c2n1C[C@@H](C)O[P@](=O)(N[C@@H](C)C(=O)OC(C)(C)C)Oc1ccc(C)cc1` (single isomer, unassigned) [Example 17B] here?
A: The EC50 was 2.92 µM.

Q: What about the CC50 at 1 day [1] of the same molecule?
A: The CC50 at 1 day was greater than 30 µM.

Q: Which EC50 (hTLR8) does the source give for `CCOCc1nc2c(N)nc3ccccc3c2n1C[C@@H](C)O[P@](=O)(N[C@@H](C)C(=O)OC(C)(C)C)Oc1ccc(OC)cc1` (single isomer, unassigned) [Example 18B] here?
A: The EC50 was 2.45 µM.

Q: And the CC50 at 1 day [1]?
A: Its CC50 at 1 day is greater than 30 µM.

Q: What does the source list for `CCOCc1nc2c(N)nc3ccccc3c2n1C[C@@H](C)O[P@](=O)(N[C@@H](C)C(=O)OC(C)(C)C)Oc1ccc(Cl)cc1` (single isomer, unassigned) [Example 19B]?
A: EC50 (hTLR8): 2.54 µM; CC50 at 1 day [1]: > 30 µM

Q: For `CCOCc1nc2c(N)nc3ccccc3c2n1C[C@@H](C)OP(=O)(N[C@@H](C)C(F)(F)F)Oc1ccccc1` (single isomer, unassigned) [Example 24A], which EC50 (hTLR8) is on record?
A: The EC50 was greater than 30 µM.

Q: For `CCOCc1nc2c(N)nc3ccccc3c2n1C[C@@H](C)OP(=O)(N[C@H](C(=O)OC(C)(C)C)C(C)C)Oc1ccc(Cl)cc1` (stereo partly shown) [Example 22], which EC50 (hTLR8) is on record?
A: Its EC50 is 1.82 µM.

Q: For `CCOCc1nc2c(N)nc3ccccc3c2n1C[C@@H](C)O[P@@](=O)(N[C@@H](C)C(C)C)Oc1ccc(Cl)cc1` [Example 23A, (R)-1-(4-amino-2-(ethoxymethyl)-1H-imidazo [4,5-c]quinolin-1-yl) propan-2-yl (4-chlorophenyl) (S)—((S)-3-methylbutan-2-yl) phosphoramide], which EC50 (hTLR8) is on record?
A: Its EC50 is greater than 30 µM.

Q: For `CCOCc1nc2c(N)nc3ccccc3c2n1C[C@@H](C)O[P@](=O)(N[C@@H](C)C(C)C)Oc1ccc(Cl)cc1` [Example 23B, (R)-1-(4-amino-2-(ethoxymethyl)-1H-imidazo [4,5-c]quinolin-1-yl) propan-2-yl (4-chlorophenyl) (R)—((S)-3-methylbutan-2-yl) phosphoramide], which EC50 (hTLR8) is on record?
A: The EC50 was 18 µM.

Q: With `CCOCc1nc2c(N)nc3ccccc3c2n1C[C@@H](C)O[P@](=O)(N[C@@H](C)C(F)(F)F)Oc1ccc(Cl)cc1` [Example 24B, (R)-1-(4-amino-2-(ethoxymethyl)-1H-imidazo [4,5-c]quinolin-1-yl) propan-2-yl (4-chlorophenyl) (R)—((S)-1,1,1-trifluoropropan-2-yl) phosphoramide] as the molecule, how does the EC50 (hTLR8) read?
A: Its EC50 is greater than 30 µM.

Q: Which EC50 (hTLR8) does the source give for `CCOCc1nc2c(N)nc3ccccc3c2n1C[C@@H](C)O[P@@](=O)(N[C@@H](C)COC)Oc1ccc(Cl)cc1` [Example 25A, (R)-1-(4-amino-2-(ethoxymethyl)-1H-imidazo [4,5-c]quinolin-1-yl) propan-2-yl (4-chlorophenyl) (S)—((S)-1-methoxypropan-2-yl) phosphoramide] here?
A: The EC50 was greater than 30 µM.

Q: For `CCOCc1nc2c(N)nc3ccccc3c2n1C[C@@H](C)O[P@](=O)(N[C@@H](C)COC)Oc1ccc(Cl)cc1` [Example 25B, (R)-1-(4-amino-2-(ethoxymethyl)-1H-imidazo [4,5-c]quinolin-1-yl) propan-2-yl (4-chlorophenyl) (R)—((S)-1-methoxypropan-2-yl) Phosphoramide], which EC50 (hTLR8) is on record?
A: Its EC50 is greater than 30 µM.

Q: With `CCOCc1nc2c(N)nc3ccccc3c2n1CC(C)(C)O` [Example R848, reference compound] as the molecule, how does the CC50 at 1 day [1] read?
A: Its CC50 at 1 day is greater than 10 µM.
